Measurements reported in patent US8741940B2, “Microbicidal composition” (Rohm and Haas Company, priority 2005, dated 2014).
Like-named read-outs stand apart in the source and are kept apart here.

Experiments:
Format in all cases: cell-based
Design in all cases: key to SI (synergy index): SI = Qa/QA + Qb/QB; >1 antagonism, lower SI = greater synergy
[1] = tested on: Escherichia coli (E. coli—ATCC #8739); assay: Synergy test, microtiter plate high resolution MIC assay, bacterium in M9GY medium; settings: for Qb (concentration of second component producing the end point, MIC): alone where Qa = 0, otherwise in the mixture; for SI: E. coli 8739 - M9GY
Experimental: (§1) When the sum of Qa/QA and Qb/QB is greater than one, antagonism is indicated. […] The lower the SI, the greater the synergy shown by that particular mixture. The minimum inhibitory concentration (MIC) of a microbicide is the lowest concentration tested under a specific set of conditions that prevents the growth of added microorganisms.
(§2) Synergy tests were conducted using standard microtiter plate assays with media designed for optimal growth of the test microorganism. Minimal salt medium supplemented with 0.2% glucose and 0.1% yeast extract (M9GY medium) was used for testing bacteria; Potato Dextrose Broth (PDB medium) was used for testing yeast and mold. In this method, a wide range of combinations of microbicides and other personal care raw materials was tested by conducting high resolution MIC assays in the presence of various concentrations of BBIT or MBIT. High resolution MICs were determined by adding varying amounts of microbicide to one column of a microtitre plate and doing subsequent […] dilutions using an automated liquid handling system to obtain a series of endpoints ranging from 2 ppm to 10,000 ppm active ingredient.
(§3) The bacteria were used at a concentration of about 5 ×10^6 bacteria per mL and the yeast and mold at 5×10^5 fungi per mL. These microorganisms are representative of natural contaminants in many consumer and industrial applications. […] (yeast and mold) or 30° C. (bacteria).
(§4) In each test, First Component (A) was BBIT and the Second Component (B) was the other commercial microbicide.
(§5) In each test, First Component (A) was MBIT and the Second Component (B) was the other commercial microbicide.

[2] = tested on: Candida albicans (C. albicans—ATCC 10231); assay: Synergy test, microtiter plate high resolution MIC assay, yeast in PDB medium; settings: for Qb (concentration of second component producing the end point, MIC): alone where Qa = 0, otherwise in the mixture; for SI: C. albicans 10231 - PDB
Experimental: as §1, §2, §3, §4, §5

[3] = tested on: Aspergillus niger (A. niger—ATCC 16404); assay: Synergy test, microtiter plate high resolution MIC assay, mold in PDB medium; settings: for Qb (concentration of second component producing the end point, MIC): alone where Qa = 0, otherwise in the mixture; for SI: A. niger 16404 - PDB
Experimental: as §1, §2, §3, §4, §5

[4] = C. albicans 10231, PDB, 24 hours

Row | Substance | Qb (concentration of Second Component B = Zinc pyrithione at the end point) [1] | SI (synergy index) [1] | Qb (concentration of Second Component B = Zinc pyrithione at the end point) [2] | SI (synergy index) [2] | Qb (concentration of Second Component B = Zinc pyrithione at the end point) [3] | SI (synergy index) [3] | SI (synergy index) ([1]; E. coli 8739, M9GY, 48 hours) | Qb (concentration of second component producing the end point, MIC) ([1]; E. coli 8739, M9GY, 48 hours) | SI ([1]; 72 hours, BBIT with Phospholipid PTC) | SI (synergy index) [2, 4] | Qb (concentration of second component producing the end point, MIC) [2, 4] | SI ([2]; 24 hours, BBIT with Phospholipid PTC) | SI (synergy index) ([3]; A. niger 16404, PDB, 4 days) | Qb (concentration of second component producing the end point, MIC) ([3]; A. niger 16404, PDB, 4 days) | SI ([3]; 3 days, BBIT with Phospholipid PTC) | SI ([1]; 48 hours, BBIT with Phospholipid EFA) | SI ([2]; 24 hours, BBIT with Phospholipid EFA) | SI (synergy index) ([3]; A. niger 16404, PDB, 3 days) | Qb (concentration of second component producing the end point, MIC) ([3]; A. niger 16404, PDB, 3 days) | SI ([3]; 4 days, BBIT with Phospholipid EFA)
1 | Zinc pyrithione | 2 | 1.00 | 30 | 1.00 | 20 | 1.00 |  |  |  |  |  |  |  |  |  |  |  |  |  | 
2 | cocamidopropyl PG-dimonium chloride phosphate |  |  |  |  |  |  | 1.00 | 100 ppm | 1.00 | 1.00 | 1000 ppm | 1.00 | 1.00 | 1000 ppm | 1.00 |  |  |  |  | 
3 | linoleamidopropyl PG-dimonium chloride phosphate |  |  |  |  |  |  | 1.00 | 500 ppm |  | 1.00 | 1000 ppm |  |  |  |  | 1.00 | 1.00 | 1.00 | 2000 ppm | 1.00
